Reference: patent publication US20070197562A1, “Remedies for prostatic hypertrophy” (Yokohama TLO Company, Ltd., priority 2004, published 2007)

Tests used:
PrSC cells = assay: Proliferation of PrSC cells stimulated with angiotensin II, TGFβ or EGF (cell count, Examples 1-3); assay type: cell-based, human; details: 5 days
Protocol: A Cell Line Derived from Normal Human Prostatic stromal cells, i.e., PrSC cells, was purchased from Sanko Junyaku Co. Ltd. (Normal Human Prostate Stromal Cells, catalogue number CC-2508), and maintained by subculturing them in a phenol red-free RPMI medium under conditions of 5% CO2 and 37° C.
The PrSC cells (10^4 cells) were placed in a 12-well dish, and cultured in a phenol red-free medium containing 0.1% (W/V) BSA under conditions of 5% CO2 and 37° C. for several days. Then, 1 μM or 10 μM of angiotensin II was added. To some wells, CV (10 μM; hereinafter CV was used at this concentration unless otherwise noted) was added as an AIIR blocker 4 hours before adding angiotensin II. Each group contained four wells (n=4). After culturing the cells at 5% CO2 and 37° C. for 5 days, the number of all cells in each of the wells was counted.
The effect of an AIIR blocker was examined in the same manner as Example 1, except for that 10 ng/mL of TGFβ was used in place of angiotensin II.
The effect of an AIIR blocker was examined in the same manner as Example 1, except for that 10 ng/mL of EGF was used in place of angiotensin II.

[1] = test system: MAPK phosphorylation in PrSC cells; assay: MAPK phosphorylation in PrSC cells (Western blotting); assay type: cell-based, human
Protocol: Stromal cells (PrSC) were cultured for 24 hours in a phenol red-free F12 medium containing 0.1% (W/V) BSA, to which angiotensin II (10 μM) or TNFα (1 ng/mL) was added each alone or in combination with either CV (10 μM) or losartan (“Los”; 10 μM) by replacing the medium. The cells were collected 10 minutes after the addition, and the total cellular proteins were extracted in the same manner as described in Example 10. Similarly, the cells cultured with no additive and the cells added with either CV or Los alone were processed in parallel. 3,000,000 PrSC cells were used for each sample.
These samples were subjected to Western blotting in the same manner as described in Example 10.

CCOc1nc2cccc(C(=O)OC(C)OC(=O)OC3CCCCC3)c2n1Cc1ccc(-c2ccccc2-c2nnn[nH]2)cc1 (stereo not shown) [CV, 1-(cyclohexyloxycarbonyloxy)ethyl 2-ethoxy-1-[[2′-(1H-tetrazole-5-yl)biphenyl-4-yl]methyl]-1H-benzimidazole-7-carboxylate]
increase in the numbers of cells (PrSC cells; AII (1 μM)+CV 10 μM added 4 hours before, P<0.01 vs AII (1 μM)): suppressed to a level similar to that of the control group
increase in the numbers of cells (PrSC cells; AII (10 μM)+CV 10 μM added 4 hours before, P<0.01 vs AII (10 μM)): suppressed to a level similar to that of the control group
increase in the number of cells (PrSC cells; EGF 10 ng/mL + CV 10 μM, P<0.05): significantly suppressed (P<0.05) to the same level as that of the control group
increase in the number of cells (PrSC cells; TGFβ 10 ng/mL + CV 10 μM, P<0.05 vs TGFβ): significantly suppressed
MAPK phosphorylation in PrSC cells ([1]; AIIR blocker 10 μM added alone, lanes 8 and 9): not caused
MAPK phosphorylation in PrSC cells ([1]; TNFα (1 ng/mL) in combination with AIIR blocker 10 μM, lanes 6 and 7, 10 minutes): suppressed
MAPK phosphorylation in PrSC cells ([1]; angiotensin II (10 μM) in combination with AIIR blocker 10 μM, lanes 3 and 4, 10 minutes): suppressed
